# Read-outs that look alike come from different tables or passages of the source.
# Key:
# Cannabinoid CB1 Receptor = biological target: T1, Cannabinoid CB1 Receptor (Homo sapiens, UniProt P21554); test: Binding assay for CB1 agonists or inverse agonists (radioligand competition, membranes of transfected SK-N-MC cells)
# T1 construct: expressed in transfected cells
# Cannabinoid CB2 Receptor = biological target: T2, Cannabinoid CB2 Receptor (Homo sapiens, UniProt P34972); test: Binding assay for CB2 agonists or inverse agonists (radioligand competition, membranes of transfected SK-N-MC cells); settings: for inhibition at 0.2 µM: read-out: Cannabinoid CB2 Receptor Binding percent inhibition
# T2 construct: expressed in transfected cells
# CB1 receptor (human) = CB1 receptor (human) (Homo sapiens, UniProt P21554); test: cell-based; settings: for CB1 Receptor Functional Activity (change in functional activity, CRE β-gal): one compound concentration, β-galactosidase activity relative to vehicle treated cells
# CB2 receptor (human) = biological target: T3, CB2 receptor (human) (Homo sapiens, UniProt P34972); test: Functional cell-based assay, CB2 receptor mediated change in CRE β-gal expression (adenylate cyclase activity) in SK-N-MC cells
# T3 construct: expressed in transfected cells
# T3 sequence (P34972 whole entry): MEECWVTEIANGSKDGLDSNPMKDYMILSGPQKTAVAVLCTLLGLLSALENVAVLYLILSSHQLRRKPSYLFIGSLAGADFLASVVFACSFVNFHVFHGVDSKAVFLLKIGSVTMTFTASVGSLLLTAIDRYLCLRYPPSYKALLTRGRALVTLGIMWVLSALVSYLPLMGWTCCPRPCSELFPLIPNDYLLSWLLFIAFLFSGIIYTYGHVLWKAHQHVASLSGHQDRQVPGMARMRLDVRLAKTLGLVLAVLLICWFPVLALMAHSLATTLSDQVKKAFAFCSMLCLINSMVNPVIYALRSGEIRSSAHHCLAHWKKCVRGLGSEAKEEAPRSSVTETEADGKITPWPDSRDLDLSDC
# T2 sequence (P34972 whole entry): as above
# Sequence of CB1 receptor (human) (P21554 whole entry): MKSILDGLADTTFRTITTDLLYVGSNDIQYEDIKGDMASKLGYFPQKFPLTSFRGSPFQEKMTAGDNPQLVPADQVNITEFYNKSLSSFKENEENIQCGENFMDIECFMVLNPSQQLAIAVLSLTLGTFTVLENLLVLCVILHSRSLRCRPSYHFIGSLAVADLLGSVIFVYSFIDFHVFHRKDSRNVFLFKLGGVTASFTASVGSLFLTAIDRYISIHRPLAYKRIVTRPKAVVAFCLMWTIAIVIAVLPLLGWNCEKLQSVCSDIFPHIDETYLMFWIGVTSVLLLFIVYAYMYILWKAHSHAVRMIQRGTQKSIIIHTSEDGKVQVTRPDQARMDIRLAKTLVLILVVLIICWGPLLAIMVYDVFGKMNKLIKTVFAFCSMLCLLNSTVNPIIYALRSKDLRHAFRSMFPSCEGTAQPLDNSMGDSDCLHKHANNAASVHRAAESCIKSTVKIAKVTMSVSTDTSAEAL
# T1 sequence (P21554 whole entry): as above
Compound,IC50 (Cannabinoid CB1 Receptor),IC50 (Cannabinoid CB2 Receptor),EC50 (CB1 receptor (human)),EC50 (CB2 receptor (human)),further results
"COC(=O)N1CCc2c(c(C(=O)NC3C4(C)CCC(C4)C3(C)C)nn2Cc2ccccc2)C1 (stereo not drawn) [Cpd 106, 1-benzyl-3-(1,3,3-trimethyl-bicyclo[2.2.1]hept-2-ylcarbamoyl)-1,4,6,7-tetrahydro-pyrazolo[4,3-c]pyridine-5-carboxylic acid methyl ester]",0.2 µM,0.002 µM,8.9 µM,0.0008 µM,
"CCOC(=O)N1CCc2c(c(C(=O)NC3C4(C)CCC(C4)C3(C)C)nn2Cc2ccccc2)C1 (stereo not drawn) [Cpd 107, 1-benzyl-3-(1,3,3-trimethyl-bicyclo[2.2.1]hept-2-ylcarbamoyl)-1,4,6,7-tetrahydro-pyrazolo[4,3-c]pyridine-5-carboxylic acid ethyl ester]",0.1 µM,0.003 µM,,0.006 µM,"CB1 Receptor Functional Activity (change in functional activity, CRE β-gal) (CB1 receptor (human)): −6%"
"CC(C)(C)OC(=O)N1CCc2c(c(C(=O)NC3C4(C)CCC(C4)C3(C)C)nn2C2CCCCC2)C1 (stereo not drawn) [Cpd 117, 1-cyclohexyl-3-(1,3,3-trimethyl-bicyclo[2.2.1]hept-2-ylcarbamoyl)-1,4,6,7-tetrahydro-pyrazolo[4,3-c]pyridine-5-carboxylic acid tert-butyl ester]",11.7 µM,0.01 µM,,,"CB1 Receptor Functional Activity (change in functional activity, CRE β-gal) (CB1 receptor (human)): −10%; EC50 (CB2 receptor (human); SK-N-MC cells expressing CRE β-gal and human CB2, forskolin, β-galactosidase activity, varying compound concentrations, read-out: CB2 Receptor Functional Inverse Agonist EC50): 0.09 µM"
"COC(=O)N1CCc2c(c(C(=O)NC3C4(C)CCC(C4)C3(C)C)nn2C2CCCCC2)C1 (stereo not drawn) [Cpd 119, 1-cyclohexyl-3-(1,3,3-trimethyl-bicyclo[2.2.1]hept-2-ylcarbamoyl)-1,4,6,7-tetrahydro-pyrazolo[4,3-c]pyridine-5-carboxylic acid methyl ester]",0.2 µM,0.09 µM,0.2 µM,0.02 µM,
"CCOC(=O)N1CCc2c(c(C(=O)NC3C4(C)CCC(C4)C3(C)C)nn2C2CCCCC2)C1 (stereo not drawn) [Cpd 120, 1-cyclohexyl-3-(1,3,3-trimethyl-bicyclo[2.2.1]hept-2-ylcarbamoyl)-1,4,6,7-tetrahydro-pyrazolo[4,3-c]pyridine-5-carboxylic acid ethyl ester]",0.5 µM,0.02 µM,0.02 µM,0.05 µM,
"CC(=O)N1CCc2c(c(C(=O)NC3C4(C)CCC(C4)C3(C)C)nn2C2CCCCC2)C1 (stereo not drawn) [Cpd 123, 5-acetyl-1-cyclohexyl-4,5,6,7-tetrahydro-1H-pyrazolo[4,3-c]pyridine-3-carboxylic acid (1,3,3-trimethyl-bicyclo[2.2.1]hept-2-yl)-amide]",0.2 µM,0.04 µM,,0.014 µM,
"Cc1ccc(S(=O)(=O)N2CCc3c(c(C(=O)NC4C5(C)CCC(C5)C4(C)C)nn3C3CCCCC3)C2)cc1 (stereo not drawn) [Cpd 124, 1-cyclohexyl-5-(toluene-4-sulfonyl)-4,5,6,7-tetrahydro-1H-pyrazolo[4,3-c]pyridine-3-carboxylic acid (1,3,3-trimethyl-bicyclo[2.2.1]hept-2-yl)-amide]",1.5 µM,0.02 µM,,0.03 µM,
"CC12CCC(C1)C(C)(C)C2NC(=O)c1nn(C2CCCCC2)c2c1CN(S(C)(=O)=O)CC2 (stereo not drawn) [Cpd 133, 1-cyclohexyl-5-methanesulfonyl-4,5,6,7-tetrahydro-1H-pyrazolo[4,3-c]pyridine-3-carboxylic acid (1,3,3-trimethyl-bicyclo[2.2.1]hept-2-yl)-amide]",0.4 µM,0.3 µM,0.73 µM,,"change in functional activity (CB2 receptor (human); CB2 section, one compound concentration, relative to vehicle treated cell activity (100%)): −29%"
"C[C@@H](NC(=O)c1nn(-c2ccc(Cl)cc2Cl)c2c1CN(C(=O)OC(C)(C)C)C/C2=C\c1ccc(F)cc1)c1ccccn1 [Cpd 138, (7E)-1-(2,4-dichloro-phenyl)-7-(4-fluoro-benzylidene)-3-[(1R)-1-pyridin-2-yl-ethylcarbamoyl]-1,4,6,7-tetrahydro-pyrazolo[4,3-c]pyridine-5-carboxylic acid tert-butyl ester]",0.03 µM,,0.009 µM,,inhibition at 0.2 µM (Cannabinoid CB2 Receptor): 21%
"C[C@@H](NC(=O)c1nn(-c2ccc(Cl)cc2Cl)c2c1CNC/C2=C\c1ccc(F)cc1)c1ccccn1 [Cpd 139, (7E)-1-(2,4-dichloro-phenyl)-7-(4-fluoro-benzylidene)-4,5,6,7-tetrahydro-1H-pyrazolo[4,3-c]pyridine-3-carboxylic acid [(1R)-1-pyridin-2-yl-ethyl]-amide]",0.04 µM,,0.03 µM,,inhibition at 0.2 µM (Cannabinoid CB2 Receptor): 16%
"C[C@@H](NC(=O)c1nn(-c2ccc(Cl)cc2Cl)c2c1CN(S(C)(=O)=O)C/C2=C\c1ccc(F)cc1)c1ccccn1 [Cpd 140, (7E)-1-(2,4-dichloro-phenyl)-7-(4-fluoro-benzylidene)-5-methanesulfonyl-4,5,6,7-tetrahydro-1H-pyrazolo[4,3-c]pyridine-3-carboxylic acid [(1R)-1-pyridin-2-yl-ethyl]-amide]",,,0.002 µM,,inhibition at 0.2 µM (Cannabinoid CB1 Receptor; read-out: Cannabinoid CB1 Receptor Binding percent inhibition): 96%; inhibition at 0.2 µM (Cannabinoid CB2 Receptor): 9%
"(7E)-1-(4-chloro-phenyl)-5-methanesulfonyl-7-(4-methoxy-benzylidene)-4,5,6,7-tetrahydro-1H-pyrazolo[4,3-c]pyridine-3-carboxylic acid (1-pyridin-2-yl-ethyl)-amide [Cpd 78]",,,,,"IC50 (Cannabinoid CB1 Receptor; human CB1, SK-N-MC cell membranes, calculated by linear regression from percent inhibition at various concentrations, read-out: Cannabinoid CB1 Receptor Binding IC50): 0.007 µM; Cannabinoid CB2 Receptor Binding percent inhibition (Cannabinoid CB2 Receptor; test concentration of 0.2 μM, compounds without an IC50 binding value): 17%; EC50 (CB1 receptor (human); SK-N-MC cells expressing CRE β-gal and human CB1, forskolin, β-galactosidase activity, varying compound concentrations, read-out: CB1 Receptor Functional Inverse Agonist EC50): 0.003 µM"
